Laboratory results as given in patent publication US20110301211A1, “ANTAGONISTS OF LYSOPHOSPHATIDIC ACID RECEPTORS” (priority 2008, published 2011).
Each block holds one compound with its values, some of them ahead of it.

What was measured:
[1] = target: T1, human LPA3 (Homo sapiens, UniProt Q9UBY5); test: HLPA3 Ca Flux assay (LPA3 calcium flux assay); type: cell-based; details: CHO cells expressing human LPA3, 10 nM LPA
T1 construct: The full-length cDNA fragment for human LPA3 was obtained by PCR from the vector
T1 sequence (Q9UBY5 1-353): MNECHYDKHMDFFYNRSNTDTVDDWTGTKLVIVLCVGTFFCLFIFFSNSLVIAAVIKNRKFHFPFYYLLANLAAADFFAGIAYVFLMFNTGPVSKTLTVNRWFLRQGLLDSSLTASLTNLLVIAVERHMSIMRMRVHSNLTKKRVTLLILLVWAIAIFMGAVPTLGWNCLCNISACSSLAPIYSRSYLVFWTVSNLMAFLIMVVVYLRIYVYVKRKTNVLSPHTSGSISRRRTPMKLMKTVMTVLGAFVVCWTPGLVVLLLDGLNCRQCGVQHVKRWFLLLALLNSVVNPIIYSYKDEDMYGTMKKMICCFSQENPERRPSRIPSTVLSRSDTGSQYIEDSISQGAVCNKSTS
Procedure: A vector containing the human LPA3 receptor cDNA was obtained from the Missouri S&T cDNA Resource Center (www.cdna.org). The full-length cDNA fragment for human LPA3 was obtained by PCR from the vector. The nucleotide sequence of the cloned human LPA3 was determined by sequencing and confirmed to be identical to the published human LPA3 sequence (NCBI accession number NM 012152). The cDNA was cloned into the pcDNA5/FRT expression plasmid and transfected in CHO cells using lipofectamine 2000 (Invitrogen Corp., USA). Clones stably expressing human LPA3 were selected using hygromycin and identified as cells that show Ca-influx in response to LPA.
Human LPA1 or LPA3 expressing CHO cells are seeded at 20,000-45,000 cells per well in a 96-well poly-D-lysine coated plate one or two days before the assay. Prior to the assay, the cells are washed once with PBS and then cultured in serum-free media overnight. On the day of the assay, a calcium indicator dye (Calcium 4, Molecular Devices) in assay buffer (HBSS with Ca^2+ and Mg^2+ and containing 20 mM Hepes and 0.3% fatty-acid free human serum albumin) is added to each well and incubation continued for 1 hour at 37° C. […] Cells are the stimulated by the addition of 10 nM LPA and intracellular Ca^2+ measured using the Flexstation 3 (Molecular Devices). IC50s are determined using Graphpad prism analysis of drug titration curves.

[2] = target: T2, human LPA1 (Homo sapiens, UniProt Q92633); test: HLPA1 Ca Flux assay (LPA1 calcium flux assay); type: cell-based; details: CHO cells expressing human LPA1, 10 nM LPA
T2 construct: the full-length cDNA for human LPA1 was obtained by PCR of the reverse transcription reaction; expressed in transfected cells
Procedure: A 1.1 kb cDNA encoding the human LPA1 receptor was cloned from human lung. Human lung RNA (Clontech Laboratories, Inc. USA) was reverse transcribed using the RETROscript kit (Ambion, Inc.) and the full-length cDNA for human LPA1 was obtained by PCR of the reverse transcription reaction. The nucleotide sequence of the cloned human LPA1 was determined by sequencing and confirmed to be identical to the published human LPA1 sequence (An et al. Biochem. Biophys. Res. Commun. 231:619 (1997). The cDNA was cloned into the pcDNA5/FRT expression plasmid and transfected in CHO cells using lipofectamine 2000 (Invitrogen Corp., USA). Clones stably expressing human LPA1 were selected using hygromycin and identified as cells that show Ca-influx in response to LPA.
Human LPA1 or LPA3 expressing CHO cells are seeded at 20,000-45,000 cells per well in a 96-well poly-D-lysine coated plate one or two days before the assay. Prior to the assay, the cells are washed once with PBS and then cultured in serum-free media overnight. On the day of the assay, a calcium indicator dye (Calcium 4, Molecular Devices) in assay buffer (HBSS with Ca^2+ and Mg^2+ and containing 20 mM Hepes and 0.3% fatty-acid free human serum albumin) is added to each well and incubation continued for 1 hour at 37° C. 10 μl of test compounds in 2.5% DMSO are added to the cells and incubation continued at room temperature for 30 minutes. Cells are the stimulated by the addition of 10 nM LPA and intracellular Ca^2+ measured using the Flexstation 3 (Molecular Devices). IC50s are determined using Graphpad prism analysis of drug titration curves.

[3] = tested on: Female CD-1 mice; test: Bleomycin-induced lung fibrosis model in mice; type: in vivo; details: acute setting (3 day)
Text: Female CD-1 mice (Harlan, 25-30 g) are housed 4 per cage, given free access to food and water and allowed to acclimate for at least 7 days prior to test initiation. After the habituation phase, mice are lightly anesthetized with isoflurane (5% in 100% O2) and administered with bleomycin sulfate (0.01-5 U/kg, Henry Schein) via intratracheal instillation (Cuzzocrea S et al. Am J Physiol Lung Cell Mol. Physiol. 2007 May; 292(5):L1095-104. Epub 2007 Jan. 12.). Mice are returned to their cages and monitored daily for the duration of the experiment. Test compound or vehicle is delivered po, ip or sc daily. The route and frequency of dosing is based on previously determined pharmacokinetic properties. […] BALF is analyzed for concentrations of inflammatory, pro-fibrotic and tissue injury biomarkers including transforming growth factor β1, hyaluronic acid, tissue inhibitor of metalloproteinase-1, matrix matelloproteinase-7, connective tissue growth factor and lactate dehydrogenase activity, using commercially available ELISA. […] Total cell counts are then obtained using a Hemavet hematology system (Drew Scientific, Wayne, Pa.) and differential cells counts are determined using Shandon cytospin (Thermo Scientific, Waltham, Mass.). […] The data are plotted using Graphpad prism and statistical differences between groups determined.

[4] = tested on: Female C57BL/6 mice; test: Mouse carbon tetrachloride (CCl4)-induced liver fibrosis model; type: in vivo; details: for collagen deposition in the liver: as compared to the untreated group
Procedure: Female C57BL/6 mice (Harlan, 20-25 g) housed 4/cage are given free access to food and water and allowed to acclimate for at least 7 days prior to test initiation. After the habituation phase, mice receive CCl4 (0.5-1.0 ml/kg body weight) diluted in corn oil vehicle (100 μL volume) via i.p. injection twice a week for 4-6 weeks. (Higazi, A. A. et al., Clin Exp Immunol. 2008 April; 152(1):163-73. Epub 2008 Feb. 14.). Control mice receive an equivalent volume of corn oil vehicle only. Test compound or vehicle is delivered po, ip or sc daily. At the end of the study (4-6 weeks after first i.p. injection of CCl4), mice are sacrificed using inhaled isoflurane and blood is drawn via cardiac puncture for subsequent analysis of ALT/AST levels. The liver is harvested, and one half of the liver is frozen at −80° C. and the other half is fixed in 10% neutral buffered formalin for histological assessment of liver fibrosis using light microscopy (10× magnification). Liver tissue homogenates are analyzed for collagen levels using Sircol (Biocolor Ltd, UK). Fixed Liver tissue is stained using hematoxylin and eosin (H&E) and trichrome and liver fibrosis is determined by quantitative, computer-assisted densitometry of collagen in liver tissue sections using light microscopy. Plasma and liver tissue lysates are also analyzed for concentrations of inflammatory, pro-fibrotic and tissue injury biomarkers including transforming growth factor β1, hyaluronic acid, tissue inhibitor of metalloproteinase-1, matrix matelloproteinase-7, connective tissue growth factor and lactate dehydrogenase activity, using commercially available ELISA. The resulting data are plotted using Graphpad prism and statistical differences between groups determined.

[5] = tested on: Female C57BL/6 mice; test: Mouse unilateral ureteral obstruction kidney fibrosis model; type: in vivo; details: as compared to the untreated group
Procedure: Female C57BL/6 mice (Harlan, 20-25 g) housed 4/cage will be given free access to food and water and allowed to acclimate for at least 7 days prior to test initiation. After the habituation phase, mice undergo unilateral ureteral obstruction (UUO) surgery or sham to left kidney. Briefly, a longitudinal, upper left incision is performed to expose the left kidney. The renal artery is located and 6/0 silk thread is passed between the artery and the ureter. The thread is looped around the ureter and knotted 3 times insuring full ligation of ureter. The kidney is returned to abdomen, the abdominal muscle is sutured and the skin is stapled closed. Mice are returned to their cages and monitored daily for the duration of the experiment. Test compound or vehicle is delivered po, ip or sc daily. The route and frequency of dosing is based on previously determined pharmacokinetic properties. All animals are sacrificed using inhaled isoflurane 4, 8 or 14 days after UUO surgery. […] Kidney tissue homogenates are analyzed for collagen levels using Sircol (Biocolor Ltd, UK). Fixed kidney tissue is also stained using hematoxylin and eosin (H&E) and trichrome and kidney fibrosis is determined by quantitative, computer-assisted densitometry of collagen in […] tissue sections using light microscopy. […] The resulting data are plotted using Graphpad prism and statistical differences between groups determined.

[6] = tested on: pancreatic cancer cell lines; details: cited from earlier work
[7] = tested on: highly peritoneal metastatic pancreatic cancer cell line; details: cited from earlier work
[8] = cited from earlier work
[9] = tested on: Unilateral ureteral obstruction (UUO; animal model of renal fibrosis) mice; details: LPA1 (−/−) mice: renal fibrosis significantly attenuated; cited from earlier work

T2 sequence (Q92633 whole entry): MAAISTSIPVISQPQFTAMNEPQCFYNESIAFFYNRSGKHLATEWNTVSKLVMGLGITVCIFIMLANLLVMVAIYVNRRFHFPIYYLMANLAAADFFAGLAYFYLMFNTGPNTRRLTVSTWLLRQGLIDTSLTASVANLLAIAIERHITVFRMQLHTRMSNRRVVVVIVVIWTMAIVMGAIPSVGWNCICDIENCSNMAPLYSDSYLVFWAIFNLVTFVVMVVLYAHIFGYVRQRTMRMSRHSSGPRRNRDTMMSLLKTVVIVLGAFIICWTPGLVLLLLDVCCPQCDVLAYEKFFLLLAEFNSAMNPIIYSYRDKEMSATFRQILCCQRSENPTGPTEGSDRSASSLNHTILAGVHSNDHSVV

Compound: COc1ccccc1C(C)OC(=O)Nc1c(C)noc1-c1ccc(-c2ccc(CC(=O)O)cc2)cc1 (centres unmarked) [Compound 6, (4′-{4-[1-(2-Methoxy-phenyl)-ethoxycarbonylamino]-3-methyl-isoxazol-5-yl}-biphenyl-4-yl)-acetic Acid]
- IC50 [1]: 1000 to 50000 nM

Compound: COc1ccc(CC(=O)O)cc1-c1ccc(-c2onc(C)c2NC(=O)OC(C)c2ccccc2Cl)cc1 (centres unmarked) [Compound 7, (4′-{4-[1-(2-Chloro-phenyl)-ethoxycarbonylamino]-3-methyl-isoxazol-5-yl}-6-methoxy-biphenyl-3-yl)-acetic Acid]
- IC50 [2]: 1000 to 50000 nM

Compound: Cc1noc(-c2ccc(-c3cccc(CC(=O)O)c3)cc2)c1NC(=O)OC(C)c1ccccc1Cl (centres unmarked) [Compound 12, (4′-{4-[1-(2-Chloro-phenyl)-ethoxycarbonylamino]-3-methyl-isoxazol-5-yl}-biphenyl-3-yl)-acetic acid]
- IC50 [1]: 300 to 1000 nM

Compound: Cc1noc(-c2ccc(-c3ccc(CC(=O)O)cc3)cc2)c1NC(=O)O[C@H](C)c1ccccc1Cl [Compound 27, (4′-{4-[(R)-1-(2-Chloro-phenyl)-ethoxycarbonylamino]-3-methyl-isoxazol-5-yl}-biphenyl-4-yl)-acetic acid]
- tissue inhibitor of metalloproteinase-1 (TIMP-1; pro-fibrotic marker) concentrations in BALF [3]: significantly reduced
- effect on collagen deposition compared with pirfenidone ([4]; 30 mg/kg, po, qd): same effect on collagen deposition as pirfenidone
- collagen deposition in the liver [4]: significantly reduced
- reduction of kidney fibrosis [5]: at least 20%

Compound: Cc1noc(-c2ccc(-c3ccc(CC(=O)O)cc3)cc2)c1NC(=O)O[C@H](C)c1ccccc1 [Compound 37]
- tissue inhibitor of metalloproteinase-1 (TIMP-1; pro-fibrotic marker) concentrations in BALF [3]: reduced
- collagen deposition in the liver [4]: significantly reduced
- reduction of kidney fibrosis [5]: 55%

Compound: Cc1noc(-c2ccc(CSCCC(=O)O)cc2)c1NC(=O)OC(C)c1ccccc1Cl (centres unmarked) [Ki16425]
- in vitro migration in response to LPA and peritoneal fluid (ascites) from pancreatic cancer patients [6]: effectively blocked
- LPA-induced and ascites-induced invasion activity [7]: blocked
- metastasis to bone in vivo [8]: inhibit
- development of renal fibrosis in UUO mice [9]: closely resembled the LPA1 (−/−) mice

More lines, now with the values ahead:

- IC50 [2]: 1000 to 50000 nM
Compound: COc1ccc(C(C)OC(=O)Nc2c(C)noc2-c2ccc(-c3ccc(CC(=O)O)cc3)cc2)c(F)c1 (centres unmarked) [Compound 40, (4′-{4-[1-(2-Fluoro-4-methoxy-phenyl)-ethoxycarbonylamino]-3-methyl-isoxazol-5-yl}-biphenyl-4-yl)-acetic acid]

- IC50 [2]: 300 to 1000 nM
Compound: Cc1noc(-c2ccc(-c3cccc(CC(=O)O)c3)cc2)c1NC(=O)O[C@H](C)c1ccccc1 [Compound 43, {4′-[3-Methyl-4-((R)-1-phenyl-ethoxycarbonylamino)-isoxazol-5-yl]-biphenyl-3-yl}-acetic Acid]

- IC50 [2]: < 300 nM
Compound: Cc1noc(-c2ccc(-c3ccc(CC(=O)NCCS(=O)(=O)O)cc3)cc2)c1NC(=O)O[C@H](C)c1ccccc1 [Compound 67, 2-(2-{4′-[3-Methyl-4-((R)-1-phenyl-ethoxycarbonylamino)-isoxazol-5-yl]-biphenyl-4-yl}-acetylamino)-ethanesulfonic Acid]
